# Source: patent US20140335052A1, “COMBINATION THERAPY FOR TREATING HCV INFECTION IN AN HCV-HIV COINFECTED PATIENT POPULATION” (BOEHRINGER INGELHEIM INTERNATIONAL GMBH, priority 2012, published 2014)
# Marks after values point to notes of the source that are not given here.
# Columns and labels:
# [1] = tested on: HCV genotype 1; assay: Phase III trial of FDV plus PegIFN/RBV in HCV/HIV coinfected patients: virologic response (plasma HCV RNA), Week 12 interim data; assay type: in vivo, human; conditions: for Virologic response Week 4 BLD / Virologic response Week 12 BLD: HCV RNA <15 IU/mL, not detected; for Virologic response Week 4 BLQ / Virologic response Week 12 BLQ: HCV RNA <25 IU/mL; for Virologic response Week 4 BLQ: FDV 120 or 240 mg QD (dose blinded) plus PegIFN/RBV; for ETS (Week 4 BLQ and Week 8 BLD): early treatment success
# Procedure: For the clinical trial described below, the Compound (1) drug product will be administered as a softgel capsule lipid-based formulation containing Compound (1) sodium salt. All references to “Compound (1)” in the below clinical study is the sodium salt form.
# (§1) Safety and Efficacy of 120 mg and 240 mg Compound (1) Once Daily in Combination With Pegylated Interferon Alpha 2a (PegIFN) and Ribavirin (RBV) for Treatment of Chronic Hepatitis C (HCV) Genotype 1 Infection in HIV/HCV Co-infected Patients. A Multinational, Randomised, Parallel Group, Open-label Trial.
# (§2) The aim of this trial is to evaluate the efficacy and the safety of Compound (1) given for 12 or 24 weeks in combination with PegIFN/RBV given for 24 or up to 48 weeks in HCV treatment-naive or relapsers patients coinfected with HIV. Patients who achieve reduction of HCV viral load according to Early Treatment Success (ETS) criteria will be randomized 1:1 to stop triple therapy at 24 weeks, or continue PegIFN/RBV for 48 week treatment duration. Patients without ETS continue PegIFN/RBV for 48 week treatment duration.
# • Sustained Virological Response (SVR): Plasma Hepatitis C Virus (HCV) Ribonucleic Acid (RNA) level <25 IU/mL, undetected at week 12 after the planned treatment duration.
# HCV RNA level<25 IU/mL (undetected) 24 weeks after the originally planned treatment duration. • Early Treatment Success (ETS): Plasma HCV RNA level<25 IU/mL (detected or undetected) at Week 4 and HCV RNA<25 IU/mL, undetected at Week 8 and have not discontinued any study drug prior to week 24. • Alanine Aminotransferase normalisation: Alanine Aminotransferase in normal range 24 weeks after the end of the originally planned treatment duration
# Inclusion criteria (selected): • 1. Chronic hepatitis C (HCV) genotype 1 infection • 2. Chronic Human Immunodeficiency Virus (HIV)-1 infection • 3. HCV treatment naive or HCV treatment experienced but only relapsers • 4. Age 18 to 70 years • 5. […] HCV viral load >1.000 IU/mL • 7. No AIDS-defining illness during 6 months prior to screening Exclusion criteria (selected): • 1. HCV infection of mixed genotype (1/2, 1/3, 1/4) • 2. Evidence of acute or chronic liver […] • 3. Hepatitis B virus (HBV) infection with presence of HBs-Ag • 4. Active malignancy or history or malignancy within the last 5 years • 5. Received concomitant systemic antiviral (other than antiretroviral), hematopoietic growth factor or immunomodulatory treatment in 28 days prior enrollment. • 6. Decompensated liver disease, as evidenced by ascites, hepatic encephalopathy, esophageal variceal bleeding, and/or laboratory values that add up to >/=7 points according tho the Child-Turcotte-Pugh classification • 7. Hemoglobin </=11 g/dL for women and </=12 g/dL for men • 8. Active autoimmune disease, including autoimmune hepatitis • 9. Known hypersensitivity to any ingredient of the study drugs
# (§3) Individuals co-infected with HCV/HIV who were HCV treatment-naïve (TN) or relapsed after previous HCV therapy were randomized to receive FDV 120 or 240 mg QD for 12 or 24 weeks, in combination with PegIFN (180 μg once weekly) and weight-based RBV for 24 or 48 weeks (response-guided). Patients on efavirenz- or PI-based antiretroviral therapy (ART) were allocated to receive FDV 240 mg or 120 mg QD, respectively; those receiving other ART or no ART were randomized to either FDV dose. Interim data remains blinded for FDV dose. Week 12 interim data are presented.
# [2] = tested on: HCV GT1; conditions: HCV GT1 mono-infected TN patients; 240 mg QD FDV plus PegIFN/RBV; study 1220.5; cited from earlier work
# [3] = Phase III trial of FDV plus PegIFN/RBV in HCV/HIV coinfected patients: safety (adverse events, HIV RNA suppression); assay type: in vivo, human
# Procedure: as §1, §2, §3
# HCV RNA was BLD at Week 4/Week 12 in 64%/64% of patients not on ART, and in 63%/85% of patients receiving ART. […] For example, in a prior study in HCV GT1 mono-infected TN patients treated with 240 mg QD FDV plus PegIFN/RBV (Boehringer Ingelheim, data on file, Clinical Trial Report for study 1220.5, U12-2567-01), HCV RNA was BLQ at week 4 and BLD at week 12 in 94% (133/142) and 93% (132/142) of patients, respectively. […] These preliminary on-treatment efficacy data are promising given that a) 17% of the coinfected patients had cirrhosis (patients with cirrhosis were not included in the 1220.5 study), b) preliminary efficacy data in HCV/HIV coinfected represent sponsor-blinded results of both FDV dose groups (e.g., 120 mg QD and 240 mg QD FDV), and c) the HCV GT1/HIV co-infected patient population is historically a more difficult-to-treat patient population with substantially lower HCV cure rates with the current standard of care treatment of pegIFN and RBV when compared to HCV GT1 monoinfected patients. The most frequent adverse events (AEs) were those known for PegIFN/RBV treatment: nausea (37%), fatigue (33%) and diarrhea (27%). Serious AEs were reported in 32 (10%) patients (including 2 deaths; none considered related to study medications). To date, 18 patients discontinued early due to AEs.
# [4] = HCV/HIV co-infected TN patient population, interim data restated in text, FDV plus PegIFN/RBV
# [5] = Relapsers (N = 69), FDV plus PegIFN/RBV
# [6] = TN patients (N = 239), FDV plus PegIFN/RBV
# [7] = Total (N = 308), FDV plus PegIFN/RBV
# [8] = patients not on ART, FDV plus PegIFN/RBV
# [9] = patients receiving ART, FDV plus PegIFN/RBV
# [10] = HCV/HIV coinfected patients (308 treated), interim
compound,measurement,setting,value
"C=C[C@@H]1C[C@]1(NC(=O)[C@@H]1C[C@@H](Oc2cc(-c3csc(C(=O)NC(C)C)n3)nc3c(Br)c(OC)ccc23)CN1C(=O)[C@@H](NC(=O)OC1CCCC1)C(C)(C)C)C(=O)O [FDV, 1-{[4-[8-Bromo-2-(2-isopropylcarbamoyl-thiazol-4-yl)-7-methoxy-quinolin-4-yloxy]-1-(R)-(2-cyclopentyloxycarbonylamino-3,3-(S)-dimethyl-butyryl)-pyrrolidine-(S)-2-carbonyl]-amino}-2-(S)-vinyl-cyclopropane-(R)-carboxylic acid]",Early virologic response rates,"[1]; HCV GT1 patients coinfected with HIV, Weeks 4 and 12, FDV plus PegIFN/RBV, interim analysis",high early virologic response rates
same,"HCV RNA BLD at week 12, patients",[1]; [4],82%
same,"HCV RNA BLQ at week 4, patients",[1]; [4],80%
same,Virologic response Week 4 BLD,[1]; [5],51 (74) n (%)
same,Virologic response Week 12 BLD,[1]; [5],63 (91) n (%)
same,Virologic response Week 4 BLQ,[1]; Relapsers (N = 69),63 (91)^b n (%)
same,Virologic response Week 12 BLQ,[1]; [5],64 (93)^d n (%)
same,ETS (Week 4 BLQ and Week 8 BLD),[1]; [5],61 (88) n (%)
same,Virologic response Week 4 BLD,[1]; [6],143 (60) n (%)
same,Virologic response Week 12 BLD,[1]; [6],195 (82) n (%)
same,Virologic response Week 4 BLQ,[1]; TN patients (N = 239),191 (80)^a n (%)
same,Virologic response Week 12 BLQ,[1]; [6],206 (86)^c n (%)
same,ETS (Week 4 BLQ and Week 8 BLD),[1]; [6],184 (77)^e n (%)
same,Virologic response Week 4 BLD,[1]; [7],194 (63) n (%)
same,Virologic response Week 12 BLD,[1]; [7],258 (84) n (%)
same,Virologic response Week 4 BLQ,[1]; Total (N = 308),254 (82) n (%)
same,Virologic response Week 12 BLQ,[1]; [7],270 (88) n (%)
same,ETS (Week 4 BLQ and Week 8 BLD),[1]; [7],245 (80) n (%)
same,"HCV RNA BLD at Week 4, patients",[1]; [8],64%
same,"HCV RNA BLD at week 12, patients",[1]; [8],64%
same,"HCV RNA BLD at Week 4, patients",[1]; [9],63%
same,"HCV RNA BLD at week 12, patients",[1]; [9],85%
same,"HCV RNA BLD at week 12, number of patients of total",[2],132/142
same,"HCV RNA BLD at week 12, patients",[2],93%
same,"HCV RNA BLQ at week 4, number of patients of total",[2],133/142
same,"HCV RNA BLQ at week 4, patients",[2],94%
same,Adverse event: diarrhea,[3]; [10],27%
same,Adverse event: fatigue,[3]; [10],33%
same,Adverse event: nausea,[3]; [10],37%
same,"Serious AEs reported, number of patients",[3]; [10],32 patients
same,"Serious AEs reported, share of patients",[3]; [10],10%
same,Deaths (among serious AEs; none considered related to study medications),"[3]; HCV/HIV coinfected patients, interim",2 deaths
same,Patients discontinued early due to AEs,"[3]; HCV/HIV coinfected patients, to date (interim)",18 patients
same,Loss of HIV RNA suppression,[3]; patients on ART,No patient on ART experienced loss of HIV RNA suppression
